Test [1] concerns the target T1, human cloned 5-HT2B receptors (Homo sapiens, UniProt P41595).
T1 construct: expressed in transfected cells; host or cells: CHO-K1
Kind of test: Human cloned 5-HT2B receptor binding assay. The settings on record: [3H]LSD (1 nM) displacement, membranes of CHO-K1 cells expressing cloned 5-HT2B receptor; read-out: 5-HT2B pKi (converted). In a few lines:
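Membranes from CHO-K1 cells expressing cloned receptor incubated 30 min at 37 °C with 1 nM [3H]LSD, 10 μM pargyline and compound (1×10^−10 to 1×10^−4 M) in 50 mM Tris-HCl pH 7.4, 4 mM CaCl2. Nonspecific binding with 100 μM 5-HT; filtration and scintillation counting, IC50 converted to Ki using Kd from saturation binding.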

The target of test [2] is T2, cloned human 5-HT2A receptor (Homo sapiens, UniProt P28223).
T2 construct: purchased Euroscreen; host or cells: CHO-K1
T2 sequence (P28223 whole entry): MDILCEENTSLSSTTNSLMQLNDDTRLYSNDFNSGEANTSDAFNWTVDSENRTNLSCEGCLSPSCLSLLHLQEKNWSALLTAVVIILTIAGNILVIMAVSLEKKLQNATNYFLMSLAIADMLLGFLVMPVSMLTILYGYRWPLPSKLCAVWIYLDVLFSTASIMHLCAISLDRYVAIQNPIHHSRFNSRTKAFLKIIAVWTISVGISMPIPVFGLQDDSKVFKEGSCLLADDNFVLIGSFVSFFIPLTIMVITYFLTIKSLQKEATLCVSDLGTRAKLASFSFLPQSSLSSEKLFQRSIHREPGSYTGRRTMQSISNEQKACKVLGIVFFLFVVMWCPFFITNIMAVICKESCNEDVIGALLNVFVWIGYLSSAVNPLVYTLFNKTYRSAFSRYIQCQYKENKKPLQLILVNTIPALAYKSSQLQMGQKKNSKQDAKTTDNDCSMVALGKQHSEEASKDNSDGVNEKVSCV
Description: Human 5-HT2A receptor binding assay. Particulars: [3H]ketanserin (1 nM) displacement, CHO-K1 cell membranes; read-out: 5-HT2A pKi (converted). In a few lines: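 Competition binding with 15 μg membranes from CHO-K1 cells expressing cloned human receptor, 1 nM [3H]ketanserin, 10 μM pargyline, 50 mM Tris pH 7.4, compounds 1×10^−10 to 1×10^−4 M; 100 μM mianserin defined nonspecific binding. Incubated 15 min at 37 °C, filtered, counted; IC50 converted to Ki using saturation-derived Kd.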

Test [3] has as its target T3, cloned human 5-HT2C receptor (Homo sapiens, UniProt P28335).
T3 construct: purchased Euroscreen; host or cells: CHO-K1
T3 sequence (P28335 33-458): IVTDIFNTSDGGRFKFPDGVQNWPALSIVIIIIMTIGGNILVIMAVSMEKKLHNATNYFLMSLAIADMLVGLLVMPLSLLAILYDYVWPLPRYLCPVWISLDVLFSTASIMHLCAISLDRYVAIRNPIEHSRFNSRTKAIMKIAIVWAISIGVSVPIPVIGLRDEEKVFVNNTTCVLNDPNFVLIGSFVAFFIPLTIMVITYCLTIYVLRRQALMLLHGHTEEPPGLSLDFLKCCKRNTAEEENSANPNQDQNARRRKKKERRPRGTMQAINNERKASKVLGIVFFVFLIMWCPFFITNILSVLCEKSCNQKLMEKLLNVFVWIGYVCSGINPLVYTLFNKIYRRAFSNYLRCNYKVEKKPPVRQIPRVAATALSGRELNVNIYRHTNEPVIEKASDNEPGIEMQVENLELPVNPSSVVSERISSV
Description: Human 5-HT2C receptor binding assay. Particulars: [3H]mesulergine (1 nM) displacement, CHO-K1 cell membranes; read-out: 5-HT2C pKi (converted). In a few lines: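 CHO-K1 cell membranes expressing the receptor (6 μg) competed against [^3H]mesulergine (1 nM) in 50 mM Tris-HCl pH 7.7, 0.1% ascorbic acid, 10 μM pargyline for 30 min at 37° C; compounds 1×10^−10 to 1×10^−4M. Nonspecific binding with 100 μM mianserin; filtration and scintillation counting. IC50 converted to Ki using saturation-derived Kd.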

Structures can show the parent of a compound that is named as a salt.

T1 sequence (P41595 whole entry): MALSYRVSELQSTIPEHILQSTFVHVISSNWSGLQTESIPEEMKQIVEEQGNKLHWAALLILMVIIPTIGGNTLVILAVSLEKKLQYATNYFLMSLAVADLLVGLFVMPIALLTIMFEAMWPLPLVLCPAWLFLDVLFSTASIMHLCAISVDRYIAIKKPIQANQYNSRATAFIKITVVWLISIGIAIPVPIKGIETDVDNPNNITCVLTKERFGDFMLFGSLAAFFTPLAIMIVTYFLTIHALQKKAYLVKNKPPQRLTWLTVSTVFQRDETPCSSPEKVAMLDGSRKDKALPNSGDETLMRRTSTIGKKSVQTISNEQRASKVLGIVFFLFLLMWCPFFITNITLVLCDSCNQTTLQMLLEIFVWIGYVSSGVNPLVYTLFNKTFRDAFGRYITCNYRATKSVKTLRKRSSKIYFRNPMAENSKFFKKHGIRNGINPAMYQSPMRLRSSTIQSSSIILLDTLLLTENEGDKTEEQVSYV

Consider `Nc1ncc(-c2cccc(-c3ccccc3Cl)c2)o1` [Compound 209E, 5-(2′-Chloro-biphenyl-3-yl)-oxazol-2-ylamine], for which the Ki is under 0.316 µM in test [1], over 1 µM in test [2] and over 10 µM in test [3].

Turning to `COc1ccccc1-c1ccc(OC)c(-c2cnc(N)o2)c1` [Compound 224B, 5-(4,2′-dimethoxy-biphenyl-3-yl)-oxazol-2-ylamine, trifluoroacetic acid], the Ki in test [1] was under 0.316 µM; in test [2], over 1 µM; in test [3] it was over 1 µM.

On to `Cc1[nH]c(N)nc1-c1cccc2ccccc12` [Compound 104I, 5-Methyl-4-naphthalen-1-yl-1H-imidazol-2-ylamine], for which the Ki in test [1] was under 0.1 µM; in test [2], over 3.16 µM; in test [3], over 1 µM.

For the compound `Cc1cccc(-c2ccc(Nc3nc(N)n(C)n3)cc2)c1` [Compound 411C, 1-methyl-N^3-(3′-methyl-biphenyl-4-yl)-1H-[1,2,4]triazole-3,5-diamine trifluoroacetic acid], the Ki in test [1] is under 1 µM; in test [2], over 1 µM; in test [3], over 1 µM.

Regarding `CCOc1ccc2ccccc2c1-c1c[nH]c(NC(C)=O)n1` [Compound 103A, N-[4-(2-Ethoxy-naphthalen-1-yl)-1H-imidazol-2-yl]-acetamide], the Ki was under 0.1 µM in test [1], over 3.16 µM in test [2] and over 1 µM in test [3].

For the compound `Cc1cccc(-c2cc(Nc3cc(C)nc(N)n3)ccc2C)c1` [Compound 12, N^4-(6,3′-dimethyl-biphenyl-3-yl)-6-methyl-pyrimidine-2,4-diamine], the values for the Ki in test [1], in test [2] and in test [3] were under 0.1 µM, over 1 µM and over 1 µM, respectively.

Take `Cc1cc(Nc2cccc(O)c2)nc(N)n1` [Compound 2Q, 3-(2-amino-6-methyl-pyrimidin-4-ylamino)-phenol hydrochloride]: the Ki was under 1 µM in test [1], over 1 µM in test [2] and over 1 µM in test [3].

Regarding `Cc1cc(Nc2ccc(-c3ccccc3)cc2)nc(N)n1` [Compound 11A, N^4-biphenyl-4-yl-6-methyl-pyrimidine-2,4-diamine trifluoroacetic acid], the values for the Ki in test [1], in test [2] and in test [3] were under 0.01 µM, over 1 µM and over 0.1 µM, respectively.

For the compound `Cc1cccc(-c2ccc(Nc3cc(C)nc(N)n3)cc2)c1` [Compound 11B], the Ki was under 0.01 µM in test [1], over 1 µM in test [2] and over 0.0316 µM in test [3].

As to `Cc1cc(Nc2cccc(F)c2)nc(N)n1` [Compound 2AN, N^4-(3-fluoro-phenyl)-6-methyl-pyrimidine-2,4-diamine], the Ki in test [1] is under 1 µM; in test [2], over 10 µM; in test [3], over 1 µM.

In the case of `COc1ccccc1-c1cccc(-c2cnc(N)o2)c1` [Compound 209G, 5-(2′-Methoxy-biphenyl-3-yl)-oxazol-2-ylamine trifluoroacetic acid], the Ki in test [1] was under 0.1 µM; in test [2] it was over 1 µM; in test [3] it was over 1 µM.

Take `Cc1cc(Nc2cccc(Br)c2)nc(N)n1` [Compound 2AF, N^4-(3-bromo-phenyl)-6-methyl-pyrimidine-2,4-diamine trifluoroacetic acid]: the Ki in test [1] is under 1 µM; in test [2], over 3.16 µM; in test [3], over 1 µM.

On to `Cn1nc(N)nc1Nc1cccc(-c2ccccc2)c1` [Compound 406A, N^5-biphenyl-3-yl-1-methyl-1H-[1,2,4]triazole-3,5-diamine], for which the Ki in test [1] is under 0.316 µM; in test [2] it was over 1 µM; in test [3], over 1 µM.

For the compound `Cc1cc(Nc2ccc(F)cc2)nc(N)n1` [Compound 2I, N^4-(4-fluoro-phenyl)-6-methyl-pyrimidine-2,4-diamine hydrochloride], the Ki is under 1 µM in test [1], over 10 µM in test [2] and over 1 µM in test [3].

Regarding `Cc1cc(Nc2ccc(I)c(Cl)c2)nc(N)n1` [Compound 2Y, N-(3-chloro-4-iodo-phenyl)-6-methyl-pyrimidine-2,4-diamine hydrochloride], the values for the Ki in test [1], in test [2] and in test [3] were under 0.1 µM, over 1 µM and over 1 µM, respectively.
